The values that follow come from patent US20250026752A1, “POSITIVE ALLOSTERIC MODULATORS OF THE MUSCARINIC ACETYLCHOLINE RECEPTOR M4” (Vanderbilt University, priority 2021, published 2025).

The test concerns the target T1, human mAChR M4 (Homo sapiens, UniProt P08173).
T1 construct: expressed in transfected cells; host or cells: CHO-K1 (ATCC), stably expressing hM4 and Gqi5
T1 sequence (P08173 1-479): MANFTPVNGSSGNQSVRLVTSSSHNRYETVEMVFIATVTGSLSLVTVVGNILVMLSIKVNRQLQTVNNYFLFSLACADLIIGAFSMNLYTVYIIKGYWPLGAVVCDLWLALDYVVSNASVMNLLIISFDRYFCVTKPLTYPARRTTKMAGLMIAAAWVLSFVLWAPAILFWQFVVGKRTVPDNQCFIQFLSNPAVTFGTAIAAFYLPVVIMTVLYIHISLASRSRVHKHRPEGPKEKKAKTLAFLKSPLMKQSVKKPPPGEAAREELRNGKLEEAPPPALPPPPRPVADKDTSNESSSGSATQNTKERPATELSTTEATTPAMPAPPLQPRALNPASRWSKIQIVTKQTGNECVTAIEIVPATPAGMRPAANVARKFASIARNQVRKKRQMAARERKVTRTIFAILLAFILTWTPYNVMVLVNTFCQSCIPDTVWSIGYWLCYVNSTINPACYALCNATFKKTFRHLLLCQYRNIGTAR
The experiment in a line: mAChR M4 cell-based functional assay: calcium flux (Fluo-4, FDSS), positive allosteric modulator activity on the EC20 acetylcholine response, hM4-Gqi5 CHO-K1 cells. The conditions noted are these: for Emax at 30 µM: CHO-K1, human M4, % ACh maximum at 30 μM; for EC50: human M4, PAM activity on EC20 acetylcholine response, calcium flux, read-out: Human M4 EC50. The essentials:
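CHO-K1 cells stably expressing human M4 with chimeric Gqi5, loaded with Fluo-4 AM for 50 min at 37° C. Compounds (11-point, 1:3 dilutions) added first, then an acetylcholine EC20 at 144 s; calcium read on FDSS at 1 Hz. EC50 is the half-maximal increase above the EC20 baseline, four-parameter logistic fit.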
On the technique in general: A change in cytosolic calcium serves as a functional read-out for many receptors and channels.

Each structure is given as a SMILES string.

What is called Emax is the size of the effect at its maximum, as opposed to the concentration needed. As usually defined, the EC50 is the concentration that produces a half-maximal response. For the compound `Fc1ccc2ncnc(N3CCc4ncc(N5CCOC(c6ccccn6)C5)cc4C3)c2c1` (centres unmarked) [Compound 223, 4-(6-(6-fluoroquinazolin-4-yl)-5,6,7,8-tetrahydro-1,6-naphthyridin-3-yl)-2-(pyridin-2-yl)morpholine], the Emax at 30 µM worked out at 65% and the EC50 was determined as 0.67 µM.
On the same counts, the results for `Cc1nc(N2CCc3ncc(-c4ccnn4C(C)C)cc3C2)c2cc(Cl)ccc2n1` [Compound 254, 6-chloro-4-(3-(1-isopropyl-1H-pyrazol-5-yl)-7,8-dihydro-1,6-naphthyridin-6(5H)-yl)-2-methylquinazoline] are 86% and 0.36 µM.
On to `Cc1ccc2ncnc(N3CCc4ncc(Nc5ccnn5C)cc4C3)c2c1` [Compound 96, N-(2-methylpyrazol-3-yl)-6-(6-methylquinazolin-4-yl)-7,8-dihydro-5H-1,6-naphthyridin-3-amine], for which the Emax at 30 µM was determined as 94% and the EC50 is 0.08 µM.
In the same order, the values of `FC(F)(F)c1cnc2c(c1)CN(c1nc(Cl)nc3ccccc13)CC2` [Compound 123, 2-chloro-4-[3-(trifluoromethyl)-7,8-dihydro-5H-1,6-naphthyridin-6-yl]quinazoline] are 68% and 0.34 µM.
Turning to `COc1ccc2ncnc(N3CCc4ncc(N5CCOc6ncccc65)cc4C3)c2c1` [Compound 79, 1-[6-(6-methoxyquinazolin-4-yl)-7,8-dihydro-5H-1,6-naphthyridin-3-yl]-2,3-dihydropyrido[2,3-b][1,4]oxazine], the Emax at 30 µM was determined as 105% and the EC50 turned out to be 0.25 µM.
For the compound `Cc1ncc(-c2cnc3c(c2)CN(c2ncnc4ccc(F)cc24)CC3)s1` [Compound 27, 5-[6-(6-fluoroquinazolin-4-yl)-7,8-dihydro-5H-1,6-naphthyridin-3-yl]-2-methyl-thiazole], the Emax at 30 µM was determined as 110% and the EC50 worked out at 0.17 µM.
As to `CC1CN(c2ncnc3ccc(F)cc23)Cc2cc(C(F)(F)F)cnc21` (single isomer, unassigned) [Compound 116, 6-fluoro-4-[(8R or S)-8-methyl-3-(trifluoromethyl)-7,8-dihydro-5H-1,6-naphthyridin-6-yl]quinazoline], the Emax at 30 µM was 113% and the EC50 turned out to be 0.07 µM.
Turning to `CC1CN(c2ncnc3ccc(Cl)cc23)Cc2cc(N3CCOCC3)cnc21` (centres unmarked) [Compound 253, 4-(6-(6-chloroquinazolin-4-yl)-8-methyl-5,6,7,8-tetrahydro-1,6-naphthyridin-3-yl)morpholine], the Emax at 30 µM stood at 96% and the EC50 was determined as 0.03 µM.
For `Cc1nc(N2CCc3ncc(-c4cnc(F)cc4C)cc3C2)c2cc(Cl)ccc2n1` [Compound 311, 6-chloro-4-(3-(6-fluoro-4-methylpyridin-3-yl)-7,8-dihydro-1,6-naphthyridin-6(5H)-yl)-2-methylquinazoline], the Emax at 30 µM worked out at 77% and the EC50 is 0.18 µM.
Turning to `CC1(C)CN(c2nc(N3CCc4ncc(N5CCCn6nccc65)cc4C3)c3cccnc3n2)CCO1` [Compound 249, 4-(4-(3-(6,7-dihydropyrazolo[1,5-a]pyrimidin-4(5H)-yl)-7,8-dihydro-1,6-naphthyridin-6(5H)-yl)pyrido[2,3-d]pyrimidin-2-yl)-2,2-dimethylmorpholine], the Emax at 30 µM was 47% and the EC50 came out at 0.81 µM.
For the compound `Cc1ccc(-c2cnc3c(c2)CN(c2nc(Cl)nc4cc(Cl)c(F)cc24)CC3)cn1` [Compound 63, 2,7-dichloro-6-fluoro-4-[3-(6-methyl-3-pyridyl)-7,8-dihydro-5H-1,6-naphthyridin-6-yl]quinazoline], the Emax at 30 µM is 26% and the EC50 was found to be 0.4 µM.
In the same order, the values of `C[C@H]1CN(c2ncnc3ccc(F)cc23)Cc2cc(N3CCOCC3)cnc21` [Compound 262, (S)-4-(6-(6-fluoroquinazolin-4-yl)-8-methyl-5,6,7,8-tetrahydro-1,6-naphthyridin-3-yl)morpholine] are 73% and 0.26 µM.
Take `Cc1cc(F)c(F)cc1-c1cnc2c(c1)CN(c1ncnc3ccc(F)cc13)CC2` [Compound 306, 4-(3-(4,5-difluoro-2-methylphenyl)-7,8-dihydro-1,6-naphthyridin-6(5H)-yl)-6-fluoroquinazoline]: the Emax at 30 µM came out at 69% and the EC50 turned out to be 5.5 µM.
Turning to `C[C@@H]1CN(c2ncnc3cc(F)c(F)cc23)Cc2cc(N3CCOCC3)cnc21` [Compound 258, (R)-4-(6-(6,7-difluoroquinazolin-4-yl)-8-methyl-5,6,7,8-tetrahydro-1,6-naphthyridin-3-yl)morpholine], the Emax at 30 µM worked out at 93% and the EC50 was 0.18 µM.
For `Cc1nc(N2CCc3ncc(N4CCO[C@H](c5ccccc5)C4)cc3C2)c2cc(F)ccc2n1` [Compound 217, (R)-4-(6-(6-fluoro-2-methylquinazolin-4-yl)-5,6,7,8-tetrahydro-1,6-naphthyridin-3-yl)-2-phenylmorpholine], the Emax at 30 µM was 84% and the EC50 came to 1.7 µM.
In the same order, the values of `FC(F)(F)c1cnc2c(c1)CN(c1nc(Cl)nc3ncccc13)CC2` [Compound 121, 2-chloro-4-[3-(trifluoromethyl)-7,8-dihydro-5H-1,6-naphthyridin-6-yl]pyrido[2,3-d]pyrimidine] are 69% and 0.36 µM.
Consider `Cn1nc(C(F)(F)F)cc1-c1cnc2c(c1)CN(c1ncnc3cc(F)c(F)cc13)CC2` [Compound 271, 6,7-difluoro-4-(3-(1-methyl-3-(trifluoromethyl)-1H-pyrazol-5-yl)-7,8-dihydro-1,6-naphthyridin-6(5H)-yl)quinazoline], for which the Emax at 30 µM worked out at 80% and the EC50 worked out at 0.95 µM.
On to `Cc1nc(N2CCc3ncc(C(F)(F)F)cc3C2)c2c(F)cccc2n1` [Compound 125, 5-fluoro-2-methyl-4-[3-(trifluoromethyl)-7,8-dihydro-5H-1,6-naphthyridin-6-yl]quinazoline], for which the Emax at 30 µM was 78% and the EC50 amounted to 0.4 µM.
Consider `Cn1nccc1Nc1cnc2c(c1)CN(c1nc(N3CCOCC3)nc3ccc(F)cc13)CC2` [Compound 185, 6-(6-fluoro-2-morpholino-quinazolin-4-yl)-N-(2-methylpyrazol-3-yl)-7,8-dihydro-5H-1,6-naphthyridin-3-amine], for which the Emax at 30 µM was determined as 83% and the EC50 is 0.39 µM.
On to `Cc1ccc2nc(C)nc(N3CCc4ncc(-c5cnc(F)cc5C)cc4C3)c2c1` [Compound 318, 4-(3-(6-fluoro-4-methylpyridin-3-yl)-7,8-dihydro-1,6-naphthyridin-6(5H)-yl)-2,6-dimethylquinazoline], for which the Emax at 30 µM worked out at 92% and the half-maximal effective concentration (EC50) is 0.07 µM.
Turning to `Cc1ccc2nc(C)nc(N3CCc4ncc(C(F)(F)F)cc4C3)c2c1` [Compound 177, 2,6-dimethyl-4-[3-(trifluoromethyl)-7,8-dihydro-5H-1,6-naphthyridin-6-yl]quinazoline], the Emax at 30 µM amounted to 92% and the EC50 came out at 0.06 µM.
On to `Cc1nc(N2CCc3ncc(Nc4ccnn4C)cc3C2)c2cc(Cl)ccc2n1` [Compound 108, 6-(6-chloro-2-methyl-quinazolin-4-yl)-N-(2-methylpyrazol-3-yl)-7,8-dihydro-5H-1,6-naphthyridin-3-amine], for which the Emax at 30 µM amounted to 102% and the EC50 came out at 0.17 µM.
